Results published in publication PMC5915149, “The role of oxidative stress in activity of anticancer thiosemicarbazones” (Oncotarget, 2018).
Where two headings read alike, the source gives them in different places.

Legend:
HCT116 = test: MTS antiproliferative assay, HCT116 (with or without added metal ions); format: cell-based, human; conditions: 96 h
Method in brief: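 Cells seeded at 3,500/well, left 24 h at 37°C, then exposed to compounds for 96 h, optionally with 20 µM CuSO4, FeSO4 or FeCl3 added. Viability by MTS absorbance at 490 nm after 1 h; IC50 taken as concentration reducing proliferation to 50% of untreated control.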

CAT = test: mRNA expression (Real-Time PCR) of CAT; format: cell-based, human; conditions: HCT116, TSC 1 µM, after the first 12 h
Description: The HCT116 cells were seeded in 3 cm Petri dishes (Nunc) at a density of 0.5·10^6 cells/well and incubated overnight. Next, the medium was removed and solutions of TSC (1 μM) and DOX (5 μM) were added. After 12 or 24 h, total RNA was isolated from the cells using TRIzol Reagent (Ambion) according to the manufacturer’s instructions. cDNA synthesis was performed with 5 μg of total RNA using a GoScript™ Reverse Transcriptase kit (Promega) and Oligo(dT)23 Primers (Sigma). The Real-Time PCR was performed with a CTX96 Touch™ Real-Time PCR Detection System (Biorad) in a 20 μL reaction volume. The reaction consisted of PowerUp™ SYBR® Green Master Mix (Applied Biosystems), a primer pair mix (0.5 μM each) and 1 μL of cDNA. All primer pair sequences were purchased from Sigma-Aldrich and are listed in Supplementary Table 2. The experiment was performed under the following conditions: initial denaturation at 95° C for 120 sec; followed by 40 denaturation cycles at 95° C, 15 sec; annealing (primer-specific temperature for 30 sec) and extension at 72° C for 60 sec. Data was analyzed based on a comparison of the expression of the target genes to a reference gene – β-actin, using the 2^–ΔΔCT method. The experiments were performed at least three times.

HCT116 cells = test: Cell cycle assay (Muse Cell-Cycle Kit); format: cell-based, human; conditions: HCT116, TSC 1 µM, 48 h
Description: The HCT116 cells were seeded in 3 cm Petri dishes (Nunc) at a density of 0.25·10^6 cells/well and incubated at 37° C for 24 h. […] After a 48 h treatment, assays were performed using a Muse Cell-Cycle Kit (Millipore) according to the manufacturer’s instructions. Briefly, cells were collected, washed with cold PBS and centrifuged at 300 g. Then, the cells were fixed in ice cold 70% ethanol and stored at –20° C overnight. Afterwards, the cells were centrifuged and resuspended in 200 μL of Muse™ Cell Cycle Reagent and incubated for 30 min at room temperature in the dark. After staining, the cells were processed for cell cycle analysis using a Muse Cell Analyzer (Millipore). The experiments were performed at least three times.

calf-thymus DNA (CT-DNA) = test: Intercalation, absorption spectra with CT-DNA; format: binding
Description: For the DNA binding studies, Calf-thymus DNA (CT-DNA) was purchased from Sigma Aldrich. The lyophilized CT-DNA was dissolved in 10 mM Tris-HCl, pH 7.9, mixed gently and left overnight at 4° C. The purity of the CT-DNA solution was determined by measuring the ratio of UV absorbance at 260 and 280 nm. […] Then, the concentration of CT-DNA was determined from the absorbance at 260 nm using an extinction coefficient of 6600 M^–1cm^–1. The tested TSC and DOX were dissolved in DMSO to a concentration of 8.35 mM, which was then used as the stock solution for preparing the various concentrations (25, 12.5, 6 and 3 µM) in 1 mL in 10 mM of Tris-HCl (pH 7.9). Afterwards, 18 µM CT-DNA was added to the prepared solutions, which were incubated for 1.5 h at 37° C with occasional vortexing. The absorption spectra were measured using a Hitachi U-2900 spectrophotometer in range of 200–500 nm. All absorption spectra were imported and compared in OriginPro 8.0.

NHDF = test system: NHDF; parameters: method as in PMID 25329549; conditions: 96 h incubation, MTS; cited from earlier work

SMILES: S=C(NN=C(c1ccccn1)c1ccccn1)N1CCN(c2ccccc2)CC1 [Compound 3a]
- IC50 (HCT116; 20 µM CuSO4 added, read-out: Activity - IC50 HCT116+ Cu^2+): 0.68 ± 0.15 nM
- IC50 (HCT116; 20 µM FeCl3 added, read-out: Activity - IC50 HCT116+ Fe^3+): 2.07 ± 0.78 nM
- mRNA expression of CAT (CAT): higher
- cells in S phase (HCT116 cells): 33–35%
- cells in G2/M phase (HCT116 cells; untreated 7%): 17%
- % hypochromism (calf-thymus DNA (CT-DNA); bound to CT-DNA): 28.2%
- Changes in absorbance (calf-thymus DNA (CT-DNA); bound to CT-DNA): hypochromism
- Δε (calf-thymus DNA (CT-DNA); bound to CT-DNA): 4120.0 M⁻¹ cm⁻¹
- blue/red shift (calf-thymus DNA (CT-DNA); wavelengths of maximum absorption, compound alone vs DNA-bound): 5 nm
- IC50 (NHDF): 1.73 ± 0.71 nM
